31 molecules from ChEMBL document CHEMBL1909631, “Synthesis and anti-inflammatory activity of some new 4,5-dihydro-1,5-diaryl-1H-pyrazole-3-substituted-heteroazole derivatives” (Bioorg Med Chem Lett, 2011) can be followed below.

In data set [1] the test system is Rattus norvegicus. Kind of data set: Antiinflammatory activity in Wistar rat assessed as protection against carrageenan-induced paw edema at 100 mg/kg, po administered 1 hr before carrageenan challenge measured after 4 hrs relative to control. It counts as functional. (In general: Carrageenan injected into the paw causes an acute inflammation.)
Data set [2] concerns Rattus norvegicus. Kind of data set: Analgesic activity in Wistar rat assessed as inhibition of acetic acid-induced writhing at 100 mg/kg, po administered 1 hr before acetic acid challenge measured after 30 mins relative to control. It counts as functional. In general terms: In writhing tests, fewer writhes than in controls are read as antinociception.
For data set [3], the system named is Rattus norvegicus. Briefly: Ulcerogenicity in fasted Wistar rat assessed as ulceration at 300 mg/kg, po administered every 2 hrs. Conditions: in vivo. It counts as toxicity, organism-based. On the set-up: dose 300 mg/kg, route oral.
Data set [4] concerns the target T1, Prostaglandin G/H synthase 2 (Homo sapiens) (UniProt P35354).
T1 sequence (whole entry): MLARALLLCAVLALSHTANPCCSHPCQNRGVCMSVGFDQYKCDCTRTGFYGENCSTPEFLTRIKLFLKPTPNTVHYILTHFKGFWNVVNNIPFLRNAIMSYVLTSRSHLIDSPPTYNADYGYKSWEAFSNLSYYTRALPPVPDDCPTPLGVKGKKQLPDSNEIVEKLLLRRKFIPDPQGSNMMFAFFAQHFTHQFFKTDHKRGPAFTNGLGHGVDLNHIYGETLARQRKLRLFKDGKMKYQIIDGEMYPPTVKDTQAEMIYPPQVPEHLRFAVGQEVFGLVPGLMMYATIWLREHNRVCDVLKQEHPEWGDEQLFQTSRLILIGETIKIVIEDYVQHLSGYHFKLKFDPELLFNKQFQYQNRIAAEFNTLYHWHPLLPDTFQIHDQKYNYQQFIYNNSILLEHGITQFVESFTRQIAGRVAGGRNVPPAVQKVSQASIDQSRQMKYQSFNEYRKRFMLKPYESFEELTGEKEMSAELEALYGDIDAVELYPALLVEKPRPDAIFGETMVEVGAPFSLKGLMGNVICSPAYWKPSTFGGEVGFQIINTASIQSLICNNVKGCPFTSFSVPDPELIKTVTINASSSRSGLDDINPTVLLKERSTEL
Briefly: Inhibition of COX2 in human whole blood at 10 uM.

On to `Clc1ccc(C2CC(c3nn[nH]n3)=NN2c2ccccc2)cc1` (stereo not given), for which the Activity with Rattus norvegicus [1] stood at 37.8%. On to `Sc1nc(C2=NN(c3ccccc3)C(c3ccc(Cl)cc3)C2)no1` (stereo not given), for which the Activity in the data set on Rattus norvegicus [1] amounted to 40.51%. Regarding `NS(=O)(=O)c1ccc(N2N=C(c3nnc(O)o3)CC2c2ccc(Cl)cc2)cc1` (racemic), the Activity in the data set on Rattus norvegicus [1] is on record as 35.38%. For the molecule `Nc1nnc(C2=NN(c3ccccc3)C(c3ccc(Cl)cc3)C2)o1` (racemic), in the data set with Rattus norvegicus [1], the Activity worked out at 4.5%. `Cn1nnc(C2=NN(c3ccccc3)C(c3ccc(Cl)cc3)C2)n1` (racemic): in the data set with Rattus norvegicus [1], the Activity was determined as 34.31%. For the molecule `O=C(O)c1nnc(C2=NN(c3ccccc3)C(c3ccc(Cl)cc3)C2)o1` (racemic), the Activity in the data set on Rattus norvegicus [1] was -19.3%. For `CSc1nnc(C2=NN(c3ccccc3)C(c3ccc(Cl)cc3)C2)s1` (racemic), in the data set with Rattus norvegicus [1], the Activity stood at 11.84%. Regarding `Sc1nnc(C2=NN(c3ccccc3)C(c3ccc(Cl)cc3)C2)o1` (racemic), in the data set with Rattus norvegicus [1], the Activity is reported as 32.74%. For the molecule `NS(=O)(=O)c1ccc(N2N=C(c3noc(S)n3)CC2c2ccc(Cl)cc2)cc1` (racemic), the Activity in the data set with Rattus norvegicus [1] is 48.82%. Still for that read-out and setting: with `Oc1nc(C2=NN(c3ccccc3)C(c3ccc(Cl)cc3)C2)no1` (racemic) the figure was 32.68%. As to `CCOC(=O)c1nnc(C2=NN(c3ccccc3)C(c3ccc(Cl)cc3)C2)o1` (racemic), the Activity in the data set with Rattus norvegicus [1] came to 4.5%. `CSc1nnc(C2=NN(c3ccc(S(N)(=O)=O)cc3)C(c3ccc(Cl)cc3)C2)s1` (racemic): the Activity in the data set on Rattus norvegicus [1] is reported as 26.12%.

Consider `O=C(O)c1nc(C2=NN(c3ccccc3)C(c3ccc(Cl)cc3)C2)no1` (racemic), for which the Activity in the data set on Rattus norvegicus [1] was 14.4%.

For `NS(=O)(=O)c1ccc(N2N=C(c3noc(O)n3)CC2c2ccc(Cl)cc2)cc1` (racemic), the Activity in the data set with Rattus norvegicus [1] is 46.18%.

On to `CCOC(=O)c1nc(C2=NN(c3ccccc3)C(c3ccc(Cl)cc3)C2)no1` (racemic), for which the Activity in the data set on Rattus norvegicus [1] worked out at 20.35%.

Regarding `O=C(O)Cc1nnc(C2=NN(c3ccccc3)C(c3ccc(Cl)cc3)C2)o1` (racemic), in the data set with Rattus norvegicus [1], the Activity was determined as 7.46%. Turning to `Nc1nnc(C2=NN(c3ccc(S(N)(=O)=O)cc3)C(c3ccc(Cl)cc3)C2)o1` (racemic), the Activity in the data set on Rattus norvegicus [1] is given as 18.38%. For the molecule `N#CC1=NN(c2ccc(S(N)(=O)=O)cc2)C(c2ccc(Cl)cc2)C1` (racemic), the Activity in the data set with Rattus norvegicus [1] is listed as 49.67%. For `Oc1nnc(C2=NN(c3ccccc3)C(c3ccc(Cl)cc3)C2)o1` (racemic), the Activity in the data set on Rattus norvegicus [1] is 24.26%. In the case of `O=C(O)Cc1nc(C2=NN(c3ccccc3)C(c3ccc(Cl)cc3)C2)no1` (racemic), the Activity with Rattus norvegicus [1] is listed as 7.08%. `CCOC(=O)Cc1nc(C2=NN(c3ccccc3)C(c3ccc(Cl)cc3)C2)no1` (racemic): in the data set with Rattus norvegicus [1], the Activity turned out to be 30.94%.

For the molecule `Cc1nc(C2=NN(c3ccccc3)C(c3ccc(Cl)cc3)C2)no1` (racemic), the Activity in the data set on Rattus norvegicus [1] is on record as 49.24%; with Rattus norvegicus [3], “Non-toxic”. Further, the inhibition in vivo at 100 mg/kg in the data set with Rattus norvegicus [2] was determined as 23.7%. Further, the inhibition in data set [4] was determined as 4%. For `Cn1nnc(C2=NN(c3ccc(S(N)(=O)=O)cc3)C(c3ccc(Cl)cc3)C2)n1` (racemic) the same measures were 48.58%, “Non-toxic”, 23.7% and 11%. For `NS(=O)(=O)c1ccc(N2N=C(c3nn[nH]n3)CC2c2ccc(Cl)cc2)cc1` (racemic) the same measures were 54.58%, “Non-toxic”, 30.1% and 7%. As for `CCOC(=O)Cc1nnc(C2=NN(c3ccccc3)C(c3ccc(Cl)cc3)C2)o1` (racemic), the Activity in the data set on Rattus norvegicus [1] is reported as -17.6%. As to `FC(F)(F)c1nnc(C2=NN(c3ccccc3)C(c3ccc(Cl)cc3)C2)o1` (racemic), the Activity with Rattus norvegicus [1] is -46.9%. Turning to `NS(=O)(=O)c1ccc(N2N=C(c3nnc(S)o3)CC2c2ccc(Cl)cc2)cc1` (racemic), the Activity in the data set with Rattus norvegicus [1] came to 36.76%. As for `FC(F)(F)c1nc(C2=NN(c3ccccc3)C(c3ccc(Cl)cc3)C2)no1` (racemic), the Activity is reported as 49.45% with Rattus norvegicus [1] and “Non-toxic” in the data set on Rattus norvegicus [3]. For the same molecule, in the data set on Rattus norvegicus [2], the inhibition in vivo at 100 mg/kg is 15.8%. For the same molecule, in data set [4], the inhibition stood at 6%. For the molecule `O=C([O-])Cc1ccccc1Nc1c(Cl)cccc1Cl.[Na+]` [DICLOFENAC SODIUM], the figures for the Activity with Rattus norvegicus [1] and in the data set on Rattus norvegicus [3] were 50.93% and “Toxic”, respectively. Moreover, in the data set with Rattus norvegicus [2], the inhibition in vivo at 100 mg/kg stood at 76.6%.

Regarding `N#CC1=NN(c2ccccc2)C(c2ccc(Cl)cc2)C1` (racemic), the Activity in the data set with Rattus norvegicus [1] stood at 39.43%. `Cc1nnc(C2=NN(c3ccccc3)C(c3ccc(Cl)cc3)C2)o1` (racemic): the Activity in the data set with Rattus norvegicus [1] is 16.45%.

A word on the inhibition in vivo: it is the share of the control response that was lost under treatment. By inhibition is commonly meant the share of the control response that was lost under treatment. A low value points to little suppression.
